Test results published in patent US4471115A, “Water soluble derivatives of cephalex and process for their preparation” (Neopharmed S.p.A., priority 1980, dated 1984).
Counter-ions that a name gives are not always drawn.

Experiments:
Solubility = type: physicochemical; conditions: for Solubility in alcohols: ethanol / absolute alcohols
clinical = conditions: human, in vivo, po
[1] = Toxicity in the rat (LD50); conditions: in vivo, po, per os
Source text: (§1) Pharmacological and clinical tests have been carried out with the compounds of the invention and the results related to the lysine salt of 2-N-methylolcephalexin are hereinafter reported for illustrative purpose.

[2] = Toxicity in the mouse (LD50); conditions: in vivo
Source text: as §1

[3] = Cephalexin microbiological title
pH of the water solution = type: physicochemical; conditions: water solution obtained in the preparation
Method: After about 10 minutes of stirring under the above conditions, a 50% solution of 14 g of lysine base was slowly added. The reaction mixture was little by little solubilized and the pH final value of the resulting solution was 7.5. The volume of the obtained solution was brought to the end value of 150 mls by adding cold distilled water. It was then sterile filtered and frozen in a prefreezer at -70° C. and finally lyophilized.

[4] = well known; cited from earlier work
[5] = in vivo, po

| SMILES | Solubility in alcohols (Solubility) | Solubility in water (Solubility) | Cephalexin microbiological title [3] | Final pH of the resulting solution (pH of the water solution) | further results |
| --- | --- | --- | --- | --- | --- |
| CC1=C(C(=O)O)N2C(=O)[C@@H](NC(=O)[C@H](NCO)c3ccccc3)[C@H]2SC1 [Example 1, Lysine salt of 2-N-methylol-cephalexin] | little soluble in absoluble alcohols | cold soluble in water | 99 to 100 % of theoretical value | 7.5 | dose excreted at 24 h (clinical): 87%; LD50 [1]: > 4000 mg/kg; LD50 ([2]; ip, intraperitoneal administration): 3100 mg/kg; LD50 ([2]; oral administration): > 4000 mg/kg |
| CC1=C(C(=O)O)N2C(=O)[C@@H](NC(=O)[C@H](NCO)c3ccccc3)[C@H]2SC1 [Example 2, Sodium salt of 2-N-methylol-cephalexin] | little soluble in ethanol and absolute alcohols | highly water soluble | 99 to 102 % of theoretical value | 7.1 |  |
| CC1=C(C(=O)O)N2C(=O)[C@@H](NC(=O)[C@H](N)c3ccccc3)[C@H]2SC1 [cephalexin, 7-(D-2-amino-2-phenylacetamido)-3-methyl-Δ^3-4-carboxylic acid] |  |  |  |  | Antibiotic utility [4]: wide spectrum antibiotic |
| CC1=C(C(=O)O)N2C(=O)[C@@H](NC(=O)[C@H](N)c3ccccc3)[C@H]2SC1 [substance B, cephalexin monohydrated] |  |  |  |  | Presence in the blood stream [5]: higher; Time after administration at which actives concentrations are detected [5]: more than 6 hours |
